One block for each compound: values may come before it.
Columns and labels:
[1] = molecular target: T1, human sweet taste receptor (hT1R2+hT1R3) (Homo sapiens, UniProt Q7RTX0+Q8TE23); assay: Automated fluorescent calcium imaging (Fluo-4 AM, FlexStation 3) of cultured cell strain (A); type: cell-based; design: The sweet taste receptor subunits T1R2 and T1R3 include an entire part of each subunit
T1 sequence (Q8TE23 20-839): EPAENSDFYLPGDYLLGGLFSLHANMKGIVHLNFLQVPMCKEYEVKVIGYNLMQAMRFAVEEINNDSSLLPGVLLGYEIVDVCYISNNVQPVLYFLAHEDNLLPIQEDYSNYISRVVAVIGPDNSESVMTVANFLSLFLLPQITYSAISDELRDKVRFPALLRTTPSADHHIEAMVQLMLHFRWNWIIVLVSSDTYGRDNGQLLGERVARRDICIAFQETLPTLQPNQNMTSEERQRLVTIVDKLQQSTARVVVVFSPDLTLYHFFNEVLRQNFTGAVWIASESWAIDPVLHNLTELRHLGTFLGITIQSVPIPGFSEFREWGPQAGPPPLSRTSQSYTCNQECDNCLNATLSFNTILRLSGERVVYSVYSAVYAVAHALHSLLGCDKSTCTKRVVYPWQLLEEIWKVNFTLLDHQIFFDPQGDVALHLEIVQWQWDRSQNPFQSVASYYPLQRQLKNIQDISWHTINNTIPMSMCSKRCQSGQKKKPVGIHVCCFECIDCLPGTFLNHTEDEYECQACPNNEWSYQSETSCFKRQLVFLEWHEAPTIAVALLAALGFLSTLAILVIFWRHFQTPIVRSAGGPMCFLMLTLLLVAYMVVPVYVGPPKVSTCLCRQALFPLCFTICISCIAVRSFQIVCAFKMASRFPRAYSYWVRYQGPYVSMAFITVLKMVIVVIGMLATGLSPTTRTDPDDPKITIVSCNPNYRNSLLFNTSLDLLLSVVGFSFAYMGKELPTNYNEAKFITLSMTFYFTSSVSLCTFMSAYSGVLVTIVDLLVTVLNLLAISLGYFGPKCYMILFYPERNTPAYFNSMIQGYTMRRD
T1 sequence (Q7RTX0 21-852): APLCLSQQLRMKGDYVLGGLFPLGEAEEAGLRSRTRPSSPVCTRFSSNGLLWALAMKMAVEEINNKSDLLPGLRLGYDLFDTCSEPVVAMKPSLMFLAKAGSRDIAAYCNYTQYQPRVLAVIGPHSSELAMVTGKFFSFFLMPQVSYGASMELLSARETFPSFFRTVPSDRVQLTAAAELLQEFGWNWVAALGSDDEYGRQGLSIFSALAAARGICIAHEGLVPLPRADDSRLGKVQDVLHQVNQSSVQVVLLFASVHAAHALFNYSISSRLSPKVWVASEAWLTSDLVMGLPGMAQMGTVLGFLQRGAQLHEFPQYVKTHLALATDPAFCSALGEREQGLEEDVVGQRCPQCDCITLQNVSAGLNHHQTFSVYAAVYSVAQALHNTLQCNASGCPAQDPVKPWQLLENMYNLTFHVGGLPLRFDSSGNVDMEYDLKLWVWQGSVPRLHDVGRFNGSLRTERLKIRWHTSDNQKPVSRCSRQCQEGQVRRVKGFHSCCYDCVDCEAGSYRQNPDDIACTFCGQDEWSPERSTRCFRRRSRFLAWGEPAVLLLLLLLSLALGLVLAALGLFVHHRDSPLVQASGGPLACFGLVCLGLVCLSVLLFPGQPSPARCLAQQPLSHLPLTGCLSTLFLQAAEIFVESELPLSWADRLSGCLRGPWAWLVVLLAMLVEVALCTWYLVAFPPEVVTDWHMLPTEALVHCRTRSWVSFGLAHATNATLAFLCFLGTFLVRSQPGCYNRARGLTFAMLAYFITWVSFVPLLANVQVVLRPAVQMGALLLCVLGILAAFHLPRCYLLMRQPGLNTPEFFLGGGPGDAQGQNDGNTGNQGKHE
Description: Automated fluorescent imaging using FlexStation 3 (Molecular Devices) can be performed, for example, according to the following procedure.
First, cells are suspended in a low glucose ([…]) DMEM medium from which hygromycin B has been removed, and each 70 to 80 thousands of cells are seeded on each well of a 96-well plate (Corning, CellBIND Surface).
Then, after cultured at 37° C. for 24 hours, a medium is removed and replaced with a suitable amount of a HEPES (2-[4-(2-hydroxyethyl)-1-piperazinyl]ethanesulfonic acid) buffer, and a HEPES buffer containing a fluorescent calcium indicator (Fluo-4 AM attached to Molecular Devices, FLIPR Ca 4 Assay Kit) is further added. In order to facilitate transfer into cells, a fat-soluble acetoxymethyl group has been introduced into the fluorescent indicator Fluo-4 (excitation wavelength: 495 nm, fluorescent wavelength: 518 nm), and when it is added to a medium, it is easily taken into cells, and is hydrolyzed with an esterase in cells. Hydrolyzed Fluo-4 becomes difficult to be permeated through a cell membrane, and is diffused into cells to form a complex with calcium, emitting intense fluorescence. In a 96-well plate for fluorescent observation, there are a plastic bottom and a film bottom. Since a plate of the plastic bottom is satisfactory in adherability and growth of cells, it is used at a simultaneous assay using a multiplate reader for observing an entire well. However, since a plate of this plastic bottom is bad in transmission property of a UV wavelength, and inhibits transmission of excited light of Fura-2, Fluo-4 is used.
Then, after incubated at 27 to 37° C. for 30 to 60 minutes, by adding thereto a sweet taste substance at a particular concentration or a solution of a sweet taste substance and a substance to be tested, taste stimulation is performed at 27 to 37° C.
A physiological response of the cultured cell strain (A) to sucrose stimulation was analyzed by automated fluorescent imaging.
The cultured cell strain (A) prepared in Example 4 was trypsinized, and suspended in the DMEM medium, a cell density was measured, and each about 80 thousand cells were seeded on each well of a 96-well plate (Corning, CellBIND Surface).
After cultured at 37° C. for 24 hours, the medium was removed and replaced with 50 μl of a HEPES buffer, and 50 μl of a HEPES buffer containing a fluorescent calcium indicator (Fluo-4 AM attached to Molecular Devices, FLIPR Ca 4 Assay Kit) was further added. Then, this was incubated at 27° C. for 45 minutes to prepare cells to be subjected to automated fluorescent imaging.
Then, to the cells was added a HEPES buffer containing sucrose, so that a final concentration of sucrose became a concentration described in Table 1, and sucrose stimulation was performed at 27° C.
The vertical axis of FIG. 15 is a maximum of change (AF) in a fluorescent intensity between immediately after stimulation and 100 seconds after stimulation, that is, a response intensity of cells, and the horizontal axis indicates a sucrose concentration (mM) expressed by logarithm.
A physiological response of the cultured cell strain (A) to D-phenylalanine stimulation was analyzed by automated fluorescent imaging.

[2] = molecular target: T1, human sweet taste receptor (hT1R2+hT1R3); assay: as above; type: cell-based; design: The sweet taste receptor subunits T1R2 and T1R3 include an entire part of each subunit; remark: listed apart in the source
[3] = molecular target: T1, human sweet taste receptor (hT1R2+hT1R3); assay: Fluorescent microscope calcium imaging (Fura-2 AM) of cultured cell strains (A) to (C); conditions: cultured cell strain (A); Sucrose in a range of 20 mM to 1 M; FIG. 13
Description: Fluorescent calcium imaging using a fluorescent microscope can be performed according to the following procedure.
First, cells are suspended in a low glucose (1,000 mg/ml) DMEM medium, from which hygromycin B has been removed, and each 40 to 80 thousands cells are seeded on each well of a 96-well plate (Greiner, Lumox).
Then, after cultured at 37° C. for 24 to 48 hours, a medium is removed and is replaced with a suitable amount of a HEPES buffer, and a HEPES buffer containing a fluorescent calcium indicator (Fura-2 AM) is further added.
After incubated at 27 to 37° C. for 30 to 60 minutes, an extracellular fluorescent indicator is removed, and this is finally replaced with a suitable amount of a HEPES buffer, and is allowed to stand at room temperature for 10 to 20 minutes. By adding thereto a sweet taste substance at a particular concentration or a solution of a sweet taste substance and a substance to be tested, taste stimulation is performed at room temperature. In the fluorescent indicator Fura-2 (excitation wavelength: 340 nm/380 nm, fluorescent wavelength: 510 nm), a fluorescent intensity of excitation at 340 nm is increased, and a fluorescent intensity of excitation at 380 nm is reduced, when a calcium ion concentration is increased.
Cells loaded with Fura-2 AM were excited at 340 nm and 380 nm, and a fluorescent image observed at 510 nm was taken using a fluorescent microscope and a CCD camera. While the image was taken, Aspartame at a final concentration of 10 mM was administered to cells and, thereafter, the image was continuously taken. From the field of the taken image, 100 cells were randomly selected, and the response cell number was counted.
Cells loaded with Fura-2 AM were excited at 340 nm and 380 nm, and a fluorescent image observed at 510 nm was taken using a fluorescent microscope and a CCD camera. While the image was taken, Aspartame at each final concentration of 0.1 mM, 0.5 mM, 1 mM, 2 mM and 5 mM was administered to cells and then the image was continuously taken.
Cells loaded with Fura-2 AM were excited at 340 nm and 380 nm, and a fluorescent image observed at 510 nm was taken by using a fluorescent microscope and a CCD camera. While the image was taken, Sucrose at each final concentration of 20 mM, 50 mM, 100 mM, 200 mM, 500 mM and 1 M was administered to cells and then the image was continuously taken.
Cells loaded with Fura-2 AM were excited at 340 nm and 380 nm, and a fluorescent image observed at 510 nm was taken by using a fluorescent microscope and a CCD camera. While the image was taken, sucrose at final concentration of 500 mM was administered to cells and then the image was continuously taken.

Change amount of fluorescent intensity (ΔF) ([1]; D-phenylalanine 1.5 mM, Average ± S.E., n = 2): 4.0 ± 0.8 | Change amount of fluorescent intensity (ΔF) ([1]; D-phenylalanine 2.2 mM, Average ± S.E., n = 2): 4.8 ± 0.6 | Change amount of fluorescent intensity (ΔF) ([1]; D-phenylalanine 3.3 mM, Average ± S.E., n = 2): 4.5 ± 0.6 | Change amount of fluorescent intensity (ΔF) ([1]; D-phenylalanine 4.9 mM, Average ± S.E., n = 2): 5.4 ± 0.3 | Change amount of fluorescent intensity (ΔF) ([1]; D-phenylalanine 7.4 mM, Average ± S.E., n = 2): 8.1 ± 0.7 | Change amount of fluorescent intensity (ΔF) ([1]; D-phenylalanine 11.1 mM, Average ± S.E., n = 2): 12.1 ± 0.2 | Change amount of fluorescent intensity (ΔF) ([1]; D-phenylalanine 16.7 mM, Average ± S.E., n = 2): 18.2 ± 0.9 | Change amount of fluorescent intensity (ΔF) ([1]; D-phenylalanine 25 mM, Average ± S.E., n = 2): 25.2 ± 1.2
Compound: N[C@H](Cc1ccccc1)C(=O)O [D-phenylalanine]

Change amount of fluorescent intensity (ΔF) ([2]; NHDC 0.03 mM): 9.6 | Change amount of fluorescent intensity (ΔF) ([2]; NHDC 0.1 mM): 20.9 | Change amount of fluorescent intensity (ΔF) ([2]; NHDC 0.3 mM): 26.7 | Change amount of fluorescent intensity (ΔF) ([2]; NHDC 1 mM): 41.8 | Change amount of fluorescent intensity (ΔF) ([2]; NHDC 3 mM): 66.8 | Change amount of fluorescent intensity (ΔF) ([2]; NHDC 10 mM): 78.6 | Change amount of fluorescent intensity (ΔF) ([1]; NHDC 0.003 mM): 5.8 | Change amount of fluorescent intensity (ΔF) ([1]; NHDC 0.01 mM): 11.2
Compound: COc1ccc(CCC(=O)c2c(O)cc(O[C@@H]3O[C@H](CO)[C@@H](O)[C@H](O)[C@H]3O[C@@H]3O[C@@H](C)[C@H](O)[C@@H](O)[C@H]3O)cc2O)cc1O [NHDC, neohesperidin dihydrochalcone]

Change amount of fluorescent intensity (ΔF) ([1]; sucrose 3.1 mM, Average ± S.E., n = 6): 10.8 ± 2.0 | Change amount of fluorescent intensity (ΔF) ([1]; sucrose 6.3 mM, Average ± S.E., n = 6): 13.8 ± 2.9 | Change amount of fluorescent intensity (ΔF) ([1]; sucrose 12.5 mM, Average ± S.E., n = 6): 14.9 ± 2.7 | Change amount of fluorescent intensity (ΔF) ([1]; sucrose 25 mM, Average ± S.E., n = 6): 17.0 ± 2.6 | Change amount of fluorescent intensity (ΔF) ([1]; sucrose 50 mM, Average ± S.E., n = 6): 29.2 ± 2.3 | Change amount of fluorescent intensity (ΔF) ([1]; sucrose 100 mM, Average ± S.E., n = 6): 40.4 ± 2.5 | Change amount of fluorescent intensity (ΔF) ([1]; sucrose 200 mM, Average ± S.E., n = 6): 35.4 ± 3.2
Compound: OC[C@H]1O[C@@](CO)(O[C@H]2O[C@H](CO)[C@@H](O)[C@H](O)[C@H]2O)[C@@H](O)[C@@H]1O [Sucrose, sucrose]
sweet taste response (fluorescent images) [3]: concentration-dependent sweet taste response was observed

Change amount of fluorescent intensity (ΔF) ([1]; saccharin 0.04 mM, Average ± S.E., n = 2): 4.0 ± 0.8 | Change amount of fluorescent intensity (ΔF) ([1]; saccharin 0.08 mM, Average ± S.E., n = 2): 8.0 ± 0.6 | Change amount of fluorescent intensity (ΔF) ([1]; saccharin 0.16 mM, Average ± S.E., n = 2): 11.1 ± 1.3 | Change amount of fluorescent intensity (ΔF) ([1]; saccharin 0.31 mM, Average ± S.E., n = 2): 18.7 ± 2.4 | Change amount of fluorescent intensity (ΔF) ([1]; saccharin 0.63 mM, Average ± S.E., n = 2): 26.1 ± 4.0 | Change amount of fluorescent intensity (ΔF) ([1]; saccharin 1.25 mM, Average ± S.E., n = 2): 25.7 ± 1.1 | Change amount of fluorescent intensity (ΔF) ([1]; saccharin 2.50 mM, Average ± S.E., n = 2): 25.6 ± 0.2 | Change amount of fluorescent intensity (ΔF) ([1]; saccharin 5 mM, Average ± S.E., n = 2): 21.8 ± 1.2
Compound: O=C1NS(=O)(=O)c2ccccc21 [saccharin]
